Article PMC11836371, “Virtual fragment screening for DNA repair inhibitors in vast chemical space” (Nature Communications, 2025)
Values after ≈ are worked out from the molar mass of the structure shown. Values joined by “and” are separate entries in the source; they are usually repeats but may differ in a detail not shown here. Equal values may be shown once. Read-outs that look alike come from different tables or passages of the source.

What was measured:
human OGG1 enzyme [1] = molecular target: T1, human OGG1 enzyme (Homo sapiens, UniProt O15527); assay: OGG1 glycosylase activity assay (enzyme inhibition, APE1-coupled fluorescence); format: biochemical
Method: “8” signifies 8-oxoA and “FAM” and “Dab” signify fluorescein and dabcyl (TriLink Biotech). Briefly, compounds dissolved in DMSO were dispensed using an Echo 550 (Labcyte), followed by transfer of enzyme and substrate solutions manually with a 16-channel pipette or with a Multidrop (Thermo Scientific). The plates were centrifuged, sealed and incubated at room temperature overnight (15 h) and read the following morning in an Hidex Sense plate reader (Hidex Oy) using a 485-nm filter with a bandwidth of 10 nm for excitation and a 535-nm filter with a bandwidth of 20 nm for emission.

Thermodynamic solubility = format: physicochemical; settings: thermodynamic from solid; single replicate
[2] = Plasma protein binding in human plasma (RED); format: in vitro ADME; settings: plasma (50% plasma, 50% isotonic buffer), pH 7.4, read-out: Protein plasma binding, fu (%)
Method: Pooled human plasma was provided by Uppsala Academic Hospital and was collected from two donors (non-smoking) (citric acid). In brief, 0.2 mL of the plasma (50% plasma, 50% isotonic buffer) test solution (typically 10 µM final compound concentration) was transferred to the membrane tube in the RED insert (ThermoFisher Scientific). 0.35 ml isotonic phosphate buffer pH 7.4 was added to the other side of the membrane. The 96-well base plate was then sealed with an adhesive plastic film (Scotch Pad) to prevent evaporation. The sample was incubated with rapid rotation (>>900 rpm) on a Kisker rotational incubator at 37 °C for 4 h to achieve equilibrium. Prior to LC-MS/MS analysis the plasma and buffer samples were treated with the addition of Methanol (1:3) containing Warfarin as an internal standard to precipitate proteins. The standard curve was created using the plasma standard. The plate was then sealed, and centrifuged and the supernatant was analyzed by liquid chromatography coupled to triple quadrupole mass spectrometry (LC-MS/MS).

human OGG1 enzyme [3] = molecular target: T1, human OGG1 enzyme; assay: Differential scanning fluorimetry (DSF) thermal shift assay; format: binding; set-up: ∆Tm (K): unit of the concentration uncertain
Method: The temperature was increased from 20 °C to 85 °C with 10 readings/degree. Tm values were calculated using an excel template and fitting to the Boltzmann equation in Prism v.6.07 (GraphPad Software).

[4] = Caco-2 cell permeability assay; format: in vitro ADME; settings: human, Caco-2, pH 7.4
Method: Prior to the experiment a drug solution of 10 µM was prepared and warmed to 37 °C. The Caco-2 filters were washed with pre-warmed HBSS prior to the experiment, and thereafter the experiment was started by applying the donor solution on the apical or basolateral side. The transport experiments were carried out at pH 7.4 in both the apical and basolateral chamber. The experiments were performed at 37 °C and with a stirring rate of 500 rpm. The receiver compartment was sampled at 15, 30, and 60 min, and at 60 min also a final sample from the donor chamber was taken to calculate the mass balance of the compound. The samples (100 µL) were transferred to a 96-well plate containing 100 µL methanol and Warfarin as IS and was sealed until analyzed by liquid chromatography coupled to triple quadrupole mass spectrometry (LC-MS/MS).

HCT116 cells = assay: Cancer cell viability assay (resazurin), HCT116; format: cell-based; settings: HCT116, 100 μM, two independent experiments; 100 µM
Summary of the method: (§1)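 Cells were exposed for 72 h at 37 °C, 5% CO2 to 11-point compound dose-response curves in 10% FBS medium. Resazurin (final 10 µg/mL) was then added for 6 h and resorufin fluorescence read (ex 544/em 595 nm). Viability relative to untreated wells; EC50 from curve fitting.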

A549 cells = assay: Cancer cell viability assay (resazurin), A549; format: cell-based; settings: two independent experiments
Summary of the method: as §1

BJhTERT cells = assay: Cell viability assay (resazurin), BJhTERT non-transformed control; format: cell-based; settings: BJhTERT, 100 μM, two independent experiments
Summary of the method: (§2)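 Cells in FBS-supplemented media exposed to compound for 72 h at 37 °C, 5% CO2, then resazurin added to 10 µg/mL final. Viability expressed relative to untreated control wells; EC50 derived by curve fitting.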

[5] = as above; format: cell-based; settings: human, BJhTERT immortalized fibroblast cells, BJhTERT, 100 μM, two independent experiments; read-out: percentage cell viability
Summary of the method: as §2

A2780 cells = assay: Cancer cell viability assay (resazurin), A2780; format: cell-based; settings: two independent experiments
Summary of the method: as §1

T1 sequence (O15527 whole entry): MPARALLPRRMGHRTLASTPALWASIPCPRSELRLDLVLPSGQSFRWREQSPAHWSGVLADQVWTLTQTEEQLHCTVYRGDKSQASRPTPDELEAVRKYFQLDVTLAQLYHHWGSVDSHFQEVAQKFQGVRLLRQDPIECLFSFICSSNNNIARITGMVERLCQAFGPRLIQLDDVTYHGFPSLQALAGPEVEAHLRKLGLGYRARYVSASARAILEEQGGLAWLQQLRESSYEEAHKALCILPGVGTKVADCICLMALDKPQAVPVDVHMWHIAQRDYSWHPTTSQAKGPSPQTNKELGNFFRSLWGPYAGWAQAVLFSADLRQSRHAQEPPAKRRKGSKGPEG

OGG1 inhibition, dose-response (Figure2C) (human OGG1 enzyme [1]; Concentration (M) 1.93e-7): 9.69 and 17.93 and 10.41 and 18.5
OGG1 inhibition, dose-response (Figure2C) (human OGG1 enzyme [1]; Concentration (M) 3.87e-7): 29.24 and 27.63 and 28.59 and 28.11
OGG1 inhibition, dose-response (Figure2C) (human OGG1 enzyme [1]; Concentration (M) 7.73e-7): 53.6 and 49.32 and 48.44 and 47.84
OGG1 inhibition, dose-response (Figure2C) (human OGG1 enzyme [1]; Concentration (M) 1.55e-6): 59.42 and 67.01 and 59.08 and 66.62
OGG1 inhibition, dose-response (Figure2C) (human OGG1 enzyme [1]; Concentration (M) 3.09e-6): 78.97 and 77.03 and 76.1 and 78.52
OGG1 inhibition, dose-response (Figure2C) (human OGG1 enzyme [1]; Concentration (M) 6.19e-6): 89 and 85.95 and 85.06 and 85.7
OGG1 inhibition, dose-response (Figure2C) (human OGG1 enzyme [1]; Concentration (M) 1.24e-5): 91.41 and 94.39 and 90.13 and 92.43
OGG1 inhibition, dose-response (Figure2C) (human OGG1 enzyme [1]; Concentration (M) 2.48e-5): 94.22 and 97.46 and 92.46 and 96.53
OGG1 inhibition, dose-response (Figure2C) (human OGG1 enzyme [1]; Concentration (M) 4.95e-5): 94.91 and 98.52 and 101.44 and 105.23
OGG1 inhibition, dose-response (Figure2C) (human OGG1 enzyme [1]; Concentration (M) 9.9e-5): 93.34 and 96.5 and 102.87 and 104.38
IC50 (human OGG1 enzyme [1]; Figure 3B source data, three independent experiments, read-out: IC50 OGG1): 442 nM and 646 nM and 620 nM
increase of inhibitory potency compared to fragment 1 (human OGG1 enzyme [1]; ratio of IC50 values): > 165 fold
IC50 (human OGG1 enzyme [1]; read-out: IC50): 600 nM
solubility thermodynamic (Thermodynamic solubility): 16 µM (≈ 6.18 µg/mL)
fraction unbound at 4 h, 10 µM [2]: 0.048
∆Tm (K) (human OGG1 enzyme [3]; 99 μM): 9.0 ± 0.2 K
∆Tm (K) (human OGG1 enzyme [3]; 99 (unit uncertain) as printed in sheet footnote): 9.0 ± 0.2 K
ΔTm (human OGG1 enzyme [3]; concentration not given): 9.0 K
Papp A→B at 60 min, 10 µM ([4]; read-out: Papp AB (10–6 cm/s)): 6.13 ×10⁻⁶ cm/s
Papp B→A at 60 min, 10 µM ([4]; read-out: Papp BA (10–6 cm/s)): 94.2 ×10⁻⁶ cm/s
SMILES: Cc1nc(-c2cc(F)c(CC(=O)Nc3noc4c3CCCC4)c(F)c2)c(C)[nH]1 [compound 23]
percentage cell viability (HCT116 cells): 61.96% and 97.34%
percentage cell viability (A549 cells; A549, 100 μM, 100 µM): 73.95%
viability at 100 µM (A549 cells; Homo sapiens, A549, A549, 100 μM, read-out: percentage cell viability): 60.6%
percentage cell viability (BJhTERT cells): 68.66%
viability at 72 h, 100 µM [5]: 67.4%
percentage cell viability (A2780 cells; A2780, 100 μM, 100 µM): 42.92%
viability at 100 µM (A2780 cells; Homo sapiens, A2780, A2780, 100 μM, read-out: percentage cell viability): 33.8%
